In patent US5047397A, “Linear analogs of atrial natriuretic peptides” (California Biotechnology Inc., priority 1988, dated 1991):
*1 amine or outer side, *2 acyl side, *3 side chain or, on linkers, in order; H or OH if unused. Where a SMILES comes first, the peptide text is derived from it. Bridges are numbered along the chain shown (N, C = ends). Where no end group is shown, it is not given here. [ ]: non-standard residue; d: D form. The star is where a group is joined. ξ: configuration not given here. Phenylacetyl(4-Ph) = O=C(Cc1ccc(-c2ccccc2)cc1)*; Acetyl(2-naphthyloxy) = O=C(COc1ccc2ccccc2c1)*; ξNaproxenoyl = COc1ccc2cc(C(C)C(=O)*)ccc2c1; Acetyl(2-naphthyl) = O=C(Cc1ccc2ccccc2c1)*; Cyclohexylacetyl = O=C(CC1CCCCC1)*; NH(2S-methylbutyl) = CC[C@H](C)CN*; 2Naphthoyl = O=C(c1ccc2ccccc2c1)*; Hydrocinnamoyl = O=C(CCc1ccccc1)*; X1 = O=C(Cc1ccc(N[*:1])cc1)[*:2]; Cit = NC(=O)NCCC[C@H](N)C(=O)O; Phg = N[C@H](C(=O)O)c1ccccc1; 4Abz = Nc1ccc(C(=O)O)cc1; X9 = O=C(C(Cl)c1ccccc1)*; Aib = CC(C)(N)C(=O)O; Inp = O=C(O)C1CCNCC1

Biological target: T1, specific ANP receptor sites on BASM or BAE cells (Bos taurus, UniProt P10730)
T1 construct: specific receptor sites on BASM or BAE cells; endogenous in cells; host or cells: cultured BASM and BAE cells
T1 sequence (P10730 42-537): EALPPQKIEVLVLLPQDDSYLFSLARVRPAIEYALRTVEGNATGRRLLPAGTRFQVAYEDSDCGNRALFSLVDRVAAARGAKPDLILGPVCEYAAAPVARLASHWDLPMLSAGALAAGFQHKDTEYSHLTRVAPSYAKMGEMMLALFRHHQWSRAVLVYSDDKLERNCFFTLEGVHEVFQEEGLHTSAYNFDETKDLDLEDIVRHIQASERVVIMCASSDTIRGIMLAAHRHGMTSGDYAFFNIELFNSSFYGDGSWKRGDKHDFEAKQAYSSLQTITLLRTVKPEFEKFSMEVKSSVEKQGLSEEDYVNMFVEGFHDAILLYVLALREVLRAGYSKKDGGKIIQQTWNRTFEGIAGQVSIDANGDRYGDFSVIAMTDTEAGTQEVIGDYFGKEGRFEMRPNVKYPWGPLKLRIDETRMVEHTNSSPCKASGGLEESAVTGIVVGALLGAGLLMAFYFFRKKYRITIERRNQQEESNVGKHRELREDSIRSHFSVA
Experiment: Competitive displacement receptor binding of (125I)-rANP(126-150) on cultured cells
Set-up: species or system bovine
Conditions: not given
Text: Analogous "competitive displacement" receptor binding assays are considered commonplace in the art for examining specific ligand-receptor interactions.
Assuming these ANP analogs act at one or more ANP receptor sites, then increased receptor affinity should reflect increased biological potency.

Compound	receptor binding / activity as judged by Ki, in words
CC[C@H](C)[C@H](NC(=O)[C@H](CCCNC(=N)N)NC(=O)[C@H](CC(=O)O)NC(=O)[C@@H](NC(=O)[C@H](CC(C)C)NC(=O)CNC(=O)CNC(=O)Cc1ccc2ccccc2c1)[C@@H](C)CC)C(N)=O [AP512, (2-NA)--G--G--L--I--D--R--I--NH2] ({Acetyl(2-naphthyl)}-GGLIDRI-NH2)	very low, if any, activity

Same assay, conditions: concentration of unlabeled peptide displacing 50% of maximal binding of 0.5 nM (125I)-rANP(126-150); BASM or BAE cells

Compound	Ki(app)
CC[C@H](C)[C@@H]1NC(=O)[C@H](CCCNC(=N)N)NC(=O)[C@H](CC(=O)O)NC(=O)[C@H]([C@@H](C)CC)NC(=O)[C@H](CCCNC(=N)N)NC(=O)CNC(=O)[C@@H](NC(=O)[C@H](CO)NC(=O)[C@H](CO)NC(=O)[C@@H](N)CCCNC(=N)N)CSSC[C@@H](C(=O)N[C@@H](CC(N)=O)C(=O)N[C@@H](CO)C(=O)N[C@@H](Cc2ccccc2)C(=O)N[C@@H](CCCNC(=N)N)C(=O)N[C@@H](Cc2ccc(O)cc2)C(=O)O)NC(=O)CNC(=O)[C@H](CC(C)C)NC(=O)CNC(=O)[C@H](CO)NC(=O)[C@H](CCC(N)=O)NC(=O)[C@H](C)NC(=O)CNC1=O [AP24, R--S--S--C--G--R--I--D--R--I--G--A--Q--S--G--L--G--C--N--S--F--R--Y] (H-RSSCGRIDRIGAQSGLGCNSFRY-OH; disulfide 4-18)	25.2 nM
CC[C@H](C)[C@H](NC(=O)[C@H](CCCNC(=N)N)NC(=O)CNC(=O)CNC(=O)Cc1ccc2ccccc2c1)C(=O)N[C@@H](CC(=O)O)C(=O)N[C@@H](CCCNC(=N)N)C(=O)N[C@H](C(N)=O)c1ccccc1 [AP595, (2-NA)--G--G-- R--I--D--R--Phg--NH2] ({Acetyl(2-naphthyl)}-GGRIDR[Phg]-NH2)	100.0 nM
CC[C@H](C)[C@H](NC(=O)[C@H](CCCNC(=N)N)NC(=O)[C@H](CC(=O)O)NC(=O)[C@@H](NC(=O)[C@H](CCC(N)=O)NC(=O)CNC(=O)CNC(=O)Cc1ccc2ccccc2c1)[C@@H](C)CC)C(N)=O [AP522, (2-NA)--G--G--Q--I--D--R--I--NH2] ({Acetyl(2-naphthyl)}-GGQIDRI-NH2)	23.0 nM
CC[C@H](C)[C@H](NC(=O)[C@H](CCCNC(=N)N)NC(=O)[C@H](CC(=O)O)NC(=O)[C@@H](NC(=O)[C@H](CCCNC(=N)N)NC(=O)CNC(=O)CNC(=O)Cc1ccc2ccccc2c1)[C@@H](C)CC)C(N)=O [AP314, (2-NA)--G--G--R--I--D--R--I--NH2] ({Acetyl(2-naphthyl)}-GGRIDRI-NH2)	14.5 nM
AFGGRIDRI-NH2 [AP103, A--F--G--G--R--I--D--R--I--NH2]	12.42 nM
CC[C@H](C)[C@H](NC(=O)[C@H](CCCNC(=N)N)NC(=O)[C@H](CC(=O)O)NC(=O)[C@@H](NC(=O)[C@H](CCCNC(=N)N)NC(=O)Cc1ccc(NC(=O)COc2ccc3ccccc3c2)cc1)[C@@H](C)CC)C(N)=O [AP792] ({Acetyl(2-naphthyloxy)}-[X1]RIDRI-NH2)	6.3 nM
CC[C@H](C)[C@H](NC(=O)[C@H](CCCNC(N)=O)NC(=O)[C@H](CC(=O)O)NC(=O)[C@@H](NC(=O)[C@H](CCCNC(=N)N)NC(=O)CNC(=O)CNC(=O)Cc1ccc2ccccc2c1)[C@@H](C)CC)C(N)=O [AP593, (2-NA)--G--G--R--I--D--Cit--I--NH2] ({Acetyl(2-naphthyl)}-GGRID[Cit]I-NH2)	55.0 nM
CC[C@H](C)[C@H](NC(=O)[C@H](CCCNC(=N)N)NC(=O)[C@H](CC(=O)O)NC(=O)[C@@H](NC(=O)[C@H](CCCNC(=N)N)NC(=O)CNC(=O)CNC(=O)COc1ccc2ccccc2c1)[C@@H](C)CC)C(N)=O [AP319, (2-NOA)--G--G--R--I--D--R--I--NH2] ({Acetyl(2-naphthyloxy)}-GGRIDRI-NH2)	6.0 nM
FGGRIDRIGAA-NH2 [AP104, F--G--G--R--I--D--R--I--G--A--A--NH2]	2.50 nM
FGGRIDRIGA-NH2 [AP126, F--G--G--R--I--D--R--I--G--A--NH2]	2.16 nM
CC[C@H](C)[C@H](NC(=O)[C@H](CCCNC(=N)N)NC(=O)[C@H](CC(=O)O)NC(=O)[C@@H](NC(=O)[C@H](CCCNC(=N)N)NC(=O)Cc1ccc(NC(=O)C(Cl)c2ccccc2)cc1)[C@@H](C)CC)C(N)=O (stereo partly shown) [AP817] (X9-[X1]RIDRI-NH2)	21.1 nM
CC[C@H](C)[C@H](NC(=O)[C@H](CCCNC(=N)N)NC(=O)[C@H](CC(=O)O)NC(=O)[C@@H](NC(=O)[C@H](CCCNC(=N)N)NC(=O)C(C)(C)NC(=O)CNC(=O)Cc1ccc2ccccc2c1)[C@@H](C)CC)C(N)=O [AP321, (2-NA)--G--(Aib)--R--I--D--R--I--NH2] ({Acetyl(2-naphthyl)}-G[Aib]RIDRI-NH2)	33.0 nM
CCNC(=O)[C@@H](NC(=O)[C@H](CCCNC(=N)N)NC(=O)[C@H](CC(=O)O)NC(=O)[C@@H](NC(=O)[C@H](CCCNC(=N)N)NC(=O)CNC(=O)CNC(=O)Cc1ccc2ccccc2c1)[C@@H](C)CC)[C@@H](C)CC [AP328, (2-NA)--G--G--R--I--D--R--I--NH(ethyl)] ({Acetyl(2-naphthyl)}-GGRIDRI-NHEt)	19.87 nM
CC[C@H](C)[C@H](NC(=O)[C@H](CCCNC(=N)N)NC(=O)[C@H](CC(=O)O)NC(=O)[C@@H](NC(=O)[C@H](CC(C)C)NC(=O)CNC(=O)CNC(=O)Cc1ccc2ccccc2c1)[C@@H](C)CC)C(N)=O [AP512, (2-NA)--G--G--L--I--D--R--I--NH2] ({Acetyl(2-naphthyl)}-GGLIDRI-NH2)	> 160 nM
CC[C@H](C)[C@H](NC(=O)[C@H](CCCNC(=N)N)NC(=O)[C@H](CC(=O)O)NC(=O)[C@@H](NC(=O)[C@H](CCCNC(=N)N)NC(=O)CNC(=O)CNC(=O)Cc1ccc(-c2ccccc2)cc1)[C@@H](C)CC)C(N)=O [AP317, (4-BPA)--G--G--R--I--D--R--I--NH2] ({Phenylacetyl(4-Ph)}-GGRIDRI-NH2)	123.8 nM
CC[C@H](C)[C@H](NC(=O)[C@H](CCCNC(=N)N)NC(=O)[C@H](CC(=O)O)NC(=O)[C@@H](NC(=O)[C@H](CCCNC(=N)N)NC(=O)CNC(=O)CNC(=O)CCc1ccccc1)[C@@H](C)CC)C(N)=O [AP132, (desNH2 --F)--G--G--R--I--D--R--I--NH2] (Hydrocinnamoyl-GGRIDRI-NH2)	10.15 nM
CC[C@H](C)CNC(=O)[C@H](CCCNC(=N)N)NC(=O)[C@H](CC(=O)O)NC(=O)[C@@H](NC[C@H](CCCCN)NC(=O)Cc1ccc(NC(=O)c2ccc3ccccc3c2)cc1)[C@@H](C)CC [AP814]	33.0 nM
CC[C@H](C)[C@H](NC(=O)[C@H](CCCNC(=N)N)NC(=O)[C@H](CC(=O)O)NC(=O)[C@@H](NC(=O)[C@H](CCCCN)NC(=O)Cc1ccc(NC(=O)Cc2ccc3ccccc3c2)cc1)[C@@H](C)CC)C(N)=O [AP800] ({Acetyl(2-naphthyl)}-[X1]KIDRI-NH2)	2.90 nM
CC[C@H](C)[C@H](NC(=O)[C@H](CCCNC(=N)N)NC(=O)[C@H](CC(=O)O)NC(=O)[C@@H](NC[C@H](CCCCN)NC(=O)Cc1ccc(NC(=O)COc2ccc3ccccc3c2)cc1)[C@@H](C)CC)C(N)=O [AP808]	98.9 nM
CC[C@H](C)[C@H](NC(=O)[C@H](CCCNC(=N)N)NC(=O)CNC(=O)CNC(=O)Cc1ccc2ccccc2c1)C(=O)N[C@@H](CC(=O)O)C(=O)N[C@@H](CCCNC(=N)N)C(=O)N[C@H](CC(C)C)C(N)=O [AP536, (2-NA)--G--G--R--I--D--R--L^ --NH2)] ({Acetyl(2-naphthyl)}-GGRIDR[dL]-NH2)	106.4 nM
CC[C@H](C)[C@H](NC(=O)[C@H](CCCNC(=N)N)NC(=O)[C@H](CC(=O)O)NC(=O)[C@@H](NC(=O)[C@H](CCCNC(=N)N)NC(=O)CNC(=O)CNC(=O)C(C)c1ccc2cc(OC)ccc2c1)[C@@H](C)CC)C(=O)NCC(=O)N[C@@H](C)C(N)=O (stereo partly drawn) [AP528, 2(2'-(6'-MeONAP))--G--G--R--I--D--R--I--G--A--NH2] (ξNaproxenoyl-GGRIDRIGA-NH2)	22.5 nM
CC[C@H](C)[C@H](NC(=O)[C@H](CCCNC(=N)N)NC(=O)[C@H](CC(=O)O)NC(=O)[C@@H](NC(=O)[C@H](CCCNC(=N)N)NC(=O)Cc1ccc(NC(=O)Cc2ccc3ccccc3c2)cc1)[C@@H](C)CC)C(N)=O [AP564] ({Acetyl(2-naphthyl)}-[X1]RIDRI-NH2)	10.1 nM
CC[C@H](C)[C@H](NC(=O)[C@H](CCCNC(=N)N)NC(=O)[C@H](CC(=O)O)NC(=O)[C@@H](NC(=O)[C@H](CCCNC(=N)N)NC(=O)CNC(=O)CNC(=O)CC1CCCCC1)[C@@H](C)CC)C(N)=O [AP334, (CHA)--G--G--R--I--D--R--I--NH2] (Cyclohexylacetyl-GGRIDRI-NH2)	92.8 nM
CC[C@H](C)[C@H](NC(=O)[C@H](CCCNC(=N)N)NC(=O)[C@H](CC(=O)O)NC(=O)[C@@H](NC(=O)[C@H](CCCNC(=N)N)NC(=O)c1ccc(NC(=O)COc2ccc3ccccc3c2)cc1)[C@@H](C)CC)C(N)=O [AP791] ({Acetyl(2-naphthyloxy)-4Abz}-RIDRI-NH2)	31.1 nM
CC[C@H](C)CNC(=O)[C@H](CCCNC(=N)N)NC(=O)[C@H](CC(=O)O)NC(=O)[C@@H](NC(=O)[C@H](CCCNC(=N)N)NCC1CCN(C(=O)COc2ccc3ccccc3c2)CC1)[C@@H](C)CC [AP812]	32.0 nM
CC[C@H](C)CNC(=O)[C@H](CCCNC(=N)N)NC(=O)[C@H](CC(=O)O)NC(=O)[C@@H](NC(=O)[C@H](CCCNC(=N)N)NC(=O)C1CCN(C(=O)COc2ccc3ccccc3c2)CC1)[C@@H](C)CC [AP810] ({Acetyl(2-naphthyloxy)-Inp}-RIDR-{NH(2S-methylbutyl)})	14.1 nM
CC[C@H](C)[C@H](NC(=O)[C@H](CCCNC(=N)N)NC(=O)[C@H](CC(=O)O)NC(=O)[C@@H](NC(=O)[C@H](CCCCN)NC(=O)Cc1ccc(NC(=O)c2ccc3ccccc3c2)cc1)[C@@H](C)CC)C(N)=O [AP802] (2Naphthoyl-[X1]KIDRI-NH2)	8.7 nM
